{"source": "patent US11021467B2", "about": "“Phosphatidylinositol 3-kinase inhibitors” (Gilead Sciences, Inc., priority 2014, dated 2021)", "test_in_all_cases": "TR-FRET enzymatic activity assay against PI3K isoforms", "assay_type_in_all_cases": "biochemical", "key": {"PI3Kγ": {"target": "PI3Kγ (Homo sapiens (Human), UniProt P48736)", "sequence (P48736 whole entry, the tested form may be a part, canonical isoform)": "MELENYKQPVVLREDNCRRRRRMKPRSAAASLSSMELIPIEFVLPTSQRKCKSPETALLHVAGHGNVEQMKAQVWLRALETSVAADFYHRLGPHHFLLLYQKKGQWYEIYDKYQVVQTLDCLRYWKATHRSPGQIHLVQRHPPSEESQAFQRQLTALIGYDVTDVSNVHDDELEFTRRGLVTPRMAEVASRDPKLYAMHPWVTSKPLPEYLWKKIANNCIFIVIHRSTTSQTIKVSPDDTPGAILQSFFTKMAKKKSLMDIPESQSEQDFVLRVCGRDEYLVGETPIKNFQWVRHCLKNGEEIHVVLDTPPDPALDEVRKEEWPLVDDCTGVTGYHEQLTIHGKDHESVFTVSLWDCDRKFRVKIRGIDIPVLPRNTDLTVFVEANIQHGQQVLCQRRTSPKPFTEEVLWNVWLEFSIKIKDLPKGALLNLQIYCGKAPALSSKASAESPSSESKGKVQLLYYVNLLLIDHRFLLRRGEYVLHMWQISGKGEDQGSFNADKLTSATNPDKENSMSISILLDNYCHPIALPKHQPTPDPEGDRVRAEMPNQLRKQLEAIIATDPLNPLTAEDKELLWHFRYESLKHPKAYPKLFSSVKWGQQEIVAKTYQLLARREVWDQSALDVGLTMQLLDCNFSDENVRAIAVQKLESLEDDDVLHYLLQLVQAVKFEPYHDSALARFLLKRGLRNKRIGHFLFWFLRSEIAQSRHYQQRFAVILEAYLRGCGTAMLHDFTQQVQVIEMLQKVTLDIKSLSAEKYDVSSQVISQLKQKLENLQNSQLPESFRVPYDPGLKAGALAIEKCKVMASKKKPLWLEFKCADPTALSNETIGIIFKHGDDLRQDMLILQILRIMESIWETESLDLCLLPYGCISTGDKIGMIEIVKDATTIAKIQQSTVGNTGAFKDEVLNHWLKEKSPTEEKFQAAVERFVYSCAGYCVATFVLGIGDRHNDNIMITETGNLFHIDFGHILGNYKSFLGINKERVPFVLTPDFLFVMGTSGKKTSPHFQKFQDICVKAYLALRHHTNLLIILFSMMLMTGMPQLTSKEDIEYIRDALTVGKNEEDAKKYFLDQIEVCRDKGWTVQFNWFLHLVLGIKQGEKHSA", "conditions": "2×Km ATP, 30 minutes at 25° C.", "text": "(§1) The compounds of formula (I) were characterized for their enzymatic activity against the PI3K isoforms. […] TR-FRET monitored the formation of 3,4,5-inositol triphosphate molecule that competed with fluorescently labeled PIP3 for binding to the GRP-1 pleckstrin homology domain protein."}, "PI3Kδ": {"target": "PI3Kδ (Homo sapiens (Human), UniProt O00329)", "sequence (O00329 whole entry)": "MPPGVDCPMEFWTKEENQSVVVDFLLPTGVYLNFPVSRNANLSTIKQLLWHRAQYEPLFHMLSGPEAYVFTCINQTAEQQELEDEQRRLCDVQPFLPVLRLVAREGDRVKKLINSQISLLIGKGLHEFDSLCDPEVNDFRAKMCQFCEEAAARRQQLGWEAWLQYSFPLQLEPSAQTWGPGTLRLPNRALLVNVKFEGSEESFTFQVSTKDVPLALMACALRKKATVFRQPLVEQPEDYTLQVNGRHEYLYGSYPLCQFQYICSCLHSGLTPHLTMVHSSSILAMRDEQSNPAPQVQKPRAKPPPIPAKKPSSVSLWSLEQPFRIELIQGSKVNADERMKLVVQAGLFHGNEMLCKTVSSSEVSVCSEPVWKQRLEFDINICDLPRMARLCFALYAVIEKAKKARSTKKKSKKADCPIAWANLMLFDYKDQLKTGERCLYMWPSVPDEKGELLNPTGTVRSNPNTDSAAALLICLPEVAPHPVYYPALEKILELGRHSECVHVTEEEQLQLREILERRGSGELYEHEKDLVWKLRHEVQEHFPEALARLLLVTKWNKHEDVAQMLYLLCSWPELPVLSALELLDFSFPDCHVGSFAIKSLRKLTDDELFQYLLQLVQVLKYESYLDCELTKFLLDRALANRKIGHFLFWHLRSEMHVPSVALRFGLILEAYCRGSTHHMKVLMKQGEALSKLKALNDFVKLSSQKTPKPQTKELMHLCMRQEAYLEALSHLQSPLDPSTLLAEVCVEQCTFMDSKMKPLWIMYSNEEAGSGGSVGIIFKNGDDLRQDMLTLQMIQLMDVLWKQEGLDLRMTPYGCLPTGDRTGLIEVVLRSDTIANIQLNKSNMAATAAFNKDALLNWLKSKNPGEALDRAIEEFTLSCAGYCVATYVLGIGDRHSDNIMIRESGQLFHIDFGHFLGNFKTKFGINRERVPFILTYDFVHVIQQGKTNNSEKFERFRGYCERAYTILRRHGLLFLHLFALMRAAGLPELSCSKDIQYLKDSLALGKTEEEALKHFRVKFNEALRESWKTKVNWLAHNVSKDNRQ", "sequence (P27986 whole entry partner)": "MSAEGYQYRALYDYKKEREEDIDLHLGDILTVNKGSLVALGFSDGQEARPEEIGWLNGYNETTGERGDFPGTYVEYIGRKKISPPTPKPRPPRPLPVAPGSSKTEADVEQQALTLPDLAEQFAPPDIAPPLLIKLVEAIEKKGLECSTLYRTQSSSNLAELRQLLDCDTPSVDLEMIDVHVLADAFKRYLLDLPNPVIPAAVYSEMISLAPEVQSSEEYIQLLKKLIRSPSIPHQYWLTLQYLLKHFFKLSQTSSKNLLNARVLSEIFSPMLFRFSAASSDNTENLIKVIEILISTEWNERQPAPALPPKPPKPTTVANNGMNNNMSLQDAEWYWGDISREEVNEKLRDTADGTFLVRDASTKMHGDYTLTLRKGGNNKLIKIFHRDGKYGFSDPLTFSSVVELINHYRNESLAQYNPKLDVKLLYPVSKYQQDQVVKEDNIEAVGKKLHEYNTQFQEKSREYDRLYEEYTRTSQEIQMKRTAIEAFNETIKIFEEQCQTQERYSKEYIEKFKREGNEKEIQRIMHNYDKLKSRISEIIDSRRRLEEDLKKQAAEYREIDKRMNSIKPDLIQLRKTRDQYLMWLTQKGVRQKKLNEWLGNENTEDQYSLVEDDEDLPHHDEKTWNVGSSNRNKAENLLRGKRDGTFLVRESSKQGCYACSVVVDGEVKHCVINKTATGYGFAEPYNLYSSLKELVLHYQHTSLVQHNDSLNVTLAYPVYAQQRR", "conditions": "2×Km ATP, 30 minutes at 25° C.", "text": "as §1"}, "PI3Kβ": {"target": "PI3Kβ (Homo sapiens (Human), UniProt P42338)", "sequence (P42338 whole entry)": "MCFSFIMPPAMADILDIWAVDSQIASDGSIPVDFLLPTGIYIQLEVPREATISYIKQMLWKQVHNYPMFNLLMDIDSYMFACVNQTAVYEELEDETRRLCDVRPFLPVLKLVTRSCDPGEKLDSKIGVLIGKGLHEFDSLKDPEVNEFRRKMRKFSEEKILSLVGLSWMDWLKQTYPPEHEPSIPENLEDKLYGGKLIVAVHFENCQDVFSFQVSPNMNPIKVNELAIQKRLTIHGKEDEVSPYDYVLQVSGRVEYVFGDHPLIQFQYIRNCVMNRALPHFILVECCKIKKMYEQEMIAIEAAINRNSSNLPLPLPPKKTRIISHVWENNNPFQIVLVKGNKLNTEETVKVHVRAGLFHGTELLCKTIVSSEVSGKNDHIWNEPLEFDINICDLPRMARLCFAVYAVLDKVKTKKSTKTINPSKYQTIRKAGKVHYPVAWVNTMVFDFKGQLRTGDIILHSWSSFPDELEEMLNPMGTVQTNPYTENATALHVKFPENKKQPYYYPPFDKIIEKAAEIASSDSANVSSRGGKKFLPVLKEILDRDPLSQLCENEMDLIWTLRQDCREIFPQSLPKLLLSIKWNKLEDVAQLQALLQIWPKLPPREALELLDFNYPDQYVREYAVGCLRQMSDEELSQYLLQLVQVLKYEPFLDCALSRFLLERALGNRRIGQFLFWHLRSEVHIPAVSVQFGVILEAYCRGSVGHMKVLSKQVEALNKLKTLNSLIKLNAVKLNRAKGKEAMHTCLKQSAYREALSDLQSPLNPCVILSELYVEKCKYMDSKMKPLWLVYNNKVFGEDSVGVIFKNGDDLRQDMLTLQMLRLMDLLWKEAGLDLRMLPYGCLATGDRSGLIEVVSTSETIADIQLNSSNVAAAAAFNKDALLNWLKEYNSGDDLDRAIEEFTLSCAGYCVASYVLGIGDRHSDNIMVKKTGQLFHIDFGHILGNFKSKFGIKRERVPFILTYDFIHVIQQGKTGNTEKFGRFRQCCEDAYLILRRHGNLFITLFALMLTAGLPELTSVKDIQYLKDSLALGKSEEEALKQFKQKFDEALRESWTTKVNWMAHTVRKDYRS", "sequence (P27986 whole entry partner)": "as the sequence (P27986 whole entry partner) above", "conditions": "PI3Kβ, TR-FRET, 2×Km ATP, 30 minutes at 25° C.", "text": "as §1"}}, "data": [{"smiles": "CC(=O)NCCCn1c([C@@H](Nc2nc(N)nc(N)c2C#N)C2CC2)nc2cccc(Cl)c2c1=O", "note": "[Compound 53, (S)—N-(3-(5-chloro-2-(cyclopropyl((2,6-diamino-5-cyanopyrimidin-4-yl)amino)methyl)-4-oxoquinazolin-3(4H)-yl)propyl)acetamide]", "values": [{"measurement": "IC50", "setting": "PI3Kγ", "result": 190, "unit": "nM"}, {"measurement": "IC50", "setting": "PI3Kδ", "result": 2, "unit": "nM"}, {"measurement": "IC50", "setting": "PI3Kβ", "result": 9, "unit": "nM"}]}, {"smiles": "N#Cc1c(N)nc(N)nc1N[C@H](c1nc2cccc(Cl)c2c(=O)n1CCCNC1CCC1)C1CC1", "note": "[Compound 54, (S)-2,4-diamino-6-(((5-chloro-3-(3-(cyclobutylamino)propyl)-4-oxo-3,4-dihydroquinazolin-2-yl)(cyclopropyl)methyl)amino)pyrimidine-5-carbonitrile]", "values": [{"measurement": "IC50", "setting": "PI3Kγ", "result": 830, "unit": "nM"}, {"measurement": "IC50", "setting": "PI3Kδ", "result": 0.4, "unit": "nM"}, {"measurement": "IC50", "setting": "PI3Kβ", "result": 5, "unit": "nM"}]}, {"smiles": "N#Cc1c(N)nc(N)nc1N[C@H](c1nc2cccc(Cl)c2c(=O)n1CCCNC1COC1)C1CC1", "note": "[Compound 55, (S)-2,4-diamino-6-(((5-chloro-3-(3-(oxetan-3-ylamino)propyl)-4-oxo-3,4-dihydroquinazolin-2-yl)(cyclopropyl)methyl)amino)pyrimidine-5-carbonitrile]", "values": [{"measurement": "IC50", "setting": "PI3Kγ", "result": 280, "unit": "nM"}, {"measurement": "IC50", "setting": "PI3Kδ", "result": 0.5, "unit": "nM"}, {"measurement": "IC50", "setting": "PI3Kβ", "result": 4, "unit": "nM"}]}, {"smiles": "N#Cc1c(N)nc(N)nc1N[C@H](c1nc2cccc(Cl)c2c(=O)n1CCCNC1CCC(F)(F)CC1)C1CC1", "note": "[Compound 56, (S)-2,4-diamino-6-(((5-chloro-3-(3-((4,4-difluorocyclohexyl)amino)propyl)-4-oxo-3,4-dihydroquinazolin-2-yl)(cyclopropyl)methyl)amino)pyrimidine-5-carbonitrile]", "values": [{"measurement": "IC50", "setting": "PI3Kγ", "result": 540, "unit": "nM"}, {"measurement": "IC50", "setting": "PI3Kδ", "result": 0.4, "unit": "nM"}, {"measurement": "IC50", "setting": "PI3Kβ", "result": 4, "unit": "nM"}]}, {"smiles": "C[C@H](Nc1ncnc(N)c1C#N)c1nc2cccc(Cl)c2c(=O)n1CCCN(C)C", "note": "[Compound 57, (S)-4-amino-6-((1-(5-chloro-3-(3-(dimethylamino)propyl)-4-oxo-3,4-dihydroquinazolin-2-yl)ethyl)amino)pyrimidine-5-carbonitrile]", "values": [{"measurement": "IC50", "setting": "PI3Kγ", "result": "≥ 10000", "unit": "nM"}, {"measurement": "IC50", "setting": "PI3Kδ", "result": 6, "unit": "nM"}, {"measurement": "IC50", "setting": "PI3Kβ", "result": 480, "unit": "nM"}]}, {"smiles": "C[C@H](Nc1nc(N)nc(N)c1C#N)c1nc2cccc(Cl)c2c(=O)n1CCN(C)C", "note": "[Compound 58, (S)-2,4-diamino-6-((1-(5-chloro-3-(2-(dimethylamino)ethyl)-4-oxo-3,4-dihydroquinazolin-2-yl)ethyl)amino)pyrimidine-5-carbonitrile]", "values": [{"measurement": "IC50", "setting": "PI3Kγ", "result": 6600, "unit": "nM"}, {"measurement": "IC50", "setting": "PI3Kδ", "result": 24, "unit": "nM"}, {"measurement": "IC50", "setting": "PI3Kβ", "result": 460, "unit": "nM"}]}, {"smiles": "NC(=O)CCCCn1c([C@@H](Nc2nc(N)nc(N)c2Cl)C2CC2)nc2cccc(Cl)c2c1=O", "note": "[Compound 59, (S)-5-(5-chloro-2-(cyclopropyl((2,6-diamino-5-chloropyrimidin-4-yl)amino)methyl)-4-oxoquinazolin-3(4H)-yl)pentanamide]", "values": [{"measurement": "IC50", "setting": "PI3Kγ", "result": 2200, "unit": "nM"}, {"measurement": "IC50", "setting": "PI3Kδ", "result": 8, "unit": "nM"}, {"measurement": "IC50", "setting": "PI3Kβ", "result": 500, "unit": "nM"}]}, {"smiles": "C[C@H](Nc1nc(N)nc(N)c1C#N)c1nc2cccc(Cl)c2c(=O)n1CCCN(C)Cc1ccccc1", "note": "[Compound 60, (S)-2,4-diamino-6-((1-(3-(3-(benzyl(methyl)amino)propyl)-5-chloro-4-oxo-3,4-dihydroquinazolin-2-yl)ethyl)amino)pyrimidine-5-carbonitrile]", "values": [{"measurement": "IC50", "setting": "PI3Kγ", "result": 6400, "unit": "nM"}, {"measurement": "IC50", "setting": "PI3Kδ", "result": 4, "unit": "nM"}, {"measurement": "IC50", "setting": "PI3Kβ", "result": 150, "unit": "nM"}]}, {"smiles": "Cc1nc(N)nc(N[C@@H](C)c2nc3cccc(Cl)c3c(=O)n2CCCN(C)Cc2ccccc2)c1C#N", "note": "[Compound 61, (S)-2-amino-4-((1-(3-(3-(benzyl(methyl)amino)propyl)-5-chloro-4-oxo-3,4-dihydroquinazolin-2-yl)ethyl)amino)-6-methylpyrimidine-5-carbonitrile]", "values": [{"measurement": "IC50", "setting": "PI3Kγ", "result": 6600, "unit": "nM"}, {"measurement": "IC50", "setting": "PI3Kδ", "result": 7, "unit": "nM"}, {"measurement": "IC50", "setting": "PI3Kβ", "result": 140, "unit": "nM"}]}, {"smiles": "C[C@H](Nc1nc(N)nc(N)c1C#N)c1nc2cccc(Cl)c2c(=O)n1CCCN(C)CC(F)(F)F", "note": "[Compound 62, (S)-2,4-diamino-6-((1-(5-chloro-3-(3-(methyl(2,2,2-trifluoroethyl)amino)propyl)-4-oxo-3,4-dihydroquinazolin-2-yl)ethyl)amino)pyrimidine-5-carbonitrile]", "values": [{"measurement": "IC50", "setting": "PI3Kγ", "result": 960, "unit": "nM"}, {"measurement": "IC50", "setting": "PI3Kδ", "result": 4, "unit": "nM"}, {"measurement": "IC50", "setting": "PI3Kβ", "result": 320, "unit": "nM"}]}, {"smiles": "N#CCCn1c([C@@H](Nc2nc(N)nc(N)c2Cl)C2CC2)nc2cccc(Cl)c2c1=O", "note": "[Compound 63, (S)-3-(5-chloro-2-(cyclopropyl((2,6-diamino-5-chloropyrimidin-4-yl)amino)methyl)-4-oxoquinazolin-3(4H)-yl)propanenitrile]", "values": [{"measurement": "IC50", "setting": "PI3Kγ", "result": 800, "unit": "nM"}, {"measurement": "IC50", "setting": "PI3Kδ", "result": 2, "unit": "nM"}, {"measurement": "IC50", "setting": "PI3Kβ", "result": 640, "unit": "nM"}]}, {"smiles": "N#Cc1c(N)nc(N)nc1N[C@H](c1nc2cccc(Cl)c2c(=O)n1CCCCC(N)=O)C1CC1", "note": "[Compound 64, (S)-5-(5-chloro-2-(cyclopropyl((2,6-diamino-5-cyanopyrimidin-4-yl)amino)methyl)-4-oxoquinazolin-3(4H)-yl)pentanamide]", "values": [{"measurement": "IC50", "setting": "PI3Kγ", "result": 110, "unit": "nM"}, {"measurement": "IC50", "setting": "PI3Kδ", "result": 1, "unit": "nM"}, {"measurement": "IC50", "setting": "PI3Kβ", "result": 12, "unit": "nM"}]}, {"smiles": "N#Cc1c(N)nc(N)nc1N[C@H](c1nc2c(Cl)ccc(Cl)c2c(=O)n1CCCC(N)=O)C1CC1", "note": "[Compound 65, (S)-4-(5,8-dichloro-2-(cyclopropyl((2,6-diamino-5-cyanopyrimidin-4-yl)amino)methyl)-4-oxoquinazolin-3(4H)-yl)butanamide]", "values": [{"measurement": "IC50", "setting": "PI3Kγ", "result": 470, "unit": "nM"}, {"measurement": "IC50", "setting": "PI3Kδ", "result": 1, "unit": "nM"}, {"measurement": "IC50", "setting": "PI3Kβ", "result": 7, "unit": "nM"}]}, {"smiles": "N#Cc1c(N)nc(N)nc1N[C@H](c1nc2cccc(Cl)c2c(=O)n1CCCC(N)=O)C1CC1", "note": "[Compound 66, (S)-4-(5-chloro-2-(cyclopropyl((2,6-diamino-5-cyanopyrimidin-4-yl)amino)methyl)-4-oxoquinazolin-3(4H)-yl)butanamide]", "values": [{"measurement": "IC50", "setting": "PI3Kγ", "result": 97, "unit": "nM"}, {"measurement": "IC50", "setting": "PI3Kδ", "result": 1, "unit": "nM"}, {"measurement": "IC50", "setting": "PI3Kβ", "result": 4, "unit": "nM"}]}, {"smiles": "NC(=O)CCn1c([C@@H](Nc2nc(N)nc(N)c2Cl)C2CC2)nc2cccc(Cl)c2c1=O", "note": "[Compound 68, (S)-3-(5-chloro-2-(cyclopropyl((2,6-diamino-5-chloropyrimidin-4-yl)amino)methyl)-4-oxoquinazolin-3(4H)-yl)propanamide]", "values": [{"measurement": "IC50", "setting": "PI3Kγ", "result": 1000, "unit": "nM"}, {"measurement": "IC50", "setting": "PI3Kδ", "result": 5, "unit": "nM"}, {"measurement": "IC50", "setting": "PI3Kβ", "result": 520, "unit": "nM"}]}, {"smiles": "NC(=O)CCCn1c([C@@H](Nc2nc(N)nc(N)c2Cl)C2CC2)nc2cccc(Cl)c2c1=O", "note": "[Compound 69, (S)-4-(5-chloro-2-(cyclopropyl((2,6-diamino-5-chloropyrimidin-4-yl)amino)methyl)-4-oxoquinazolin-3(4H)-yl)butanamide]", "values": [{"measurement": "IC50", "setting": "PI3Kγ", "result": 1300, "unit": "nM"}, {"measurement": "IC50", "setting": "PI3Kδ", "result": 2, "unit": "nM"}, {"measurement": "IC50", "setting": "PI3Kβ", "result": 49, "unit": "nM"}]}, {"smiles": "C[C@H](Nc1ncnn2ccnc12)c1nc2cccc(Cl)c2c(=O)n1CCCN", "note": "[Compound 71, (S)-3-(3-aminopropyl)-5-chloro-2-(1-(imidazo[2,1-f][1,2,4]triazin-4-ylamino)ethyl)quinazolin-4(3H)-one]", "values": [{"measurement": "IC50", "setting": "PI3Kγ", "result": "≥ 10000", "unit": "nM"}, {"measurement": "IC50", "setting": "PI3Kδ", "result": 34, "unit": "nM"}, {"measurement": "IC50", "setting": "PI3Kβ", "result": 240, "unit": "nM"}]}, {"smiles": "C[C@H](Nc1ncnc2scnc12)c1nc2cccc(Cl)c2c(=O)n1CCCN", "note": "[Compound 72, (S)-3-(3-aminopropyl)-5-chloro-2-(1-(thiazolo[5,4-d]pyrimidin-7-ylamino)ethyl)quinazolin-4(3H)-one]", "values": [{"measurement": "IC50", "setting": "PI3Kγ", "result": 7900, "unit": "nM"}, {"measurement": "IC50", "setting": "PI3Kδ", "result": 12, "unit": "nM"}, {"measurement": "IC50", "setting": "PI3Kβ", "result": 35, "unit": "nM"}]}, {"smiles": "C[C@H](Nc1ncnc(N)c1C#N)c1nc2cccc(Cl)c2c(=O)n1CCCN", "note": "[Compound 73, (S)-4-amino-6-((1-(3-(3-aminopropyl)-5-chloro-4-oxo-3,4-dihydroquinazolin-2-yl)ethyl)amino)pyrimidine-5-carbonitrile]", "values": [{"measurement": "IC50", "setting": "PI3Kγ", "result": 9400, "unit": "nM"}, {"measurement": "IC50", "setting": "PI3Kδ", "result": 6, "unit": "nM"}, {"measurement": "IC50", "setting": "PI3Kβ", "result": 21, "unit": "nM"}]}]}
